Patent publication US9375006B2, “5- halogenopyrazole benzofuranyl carboxamides” (BAYER CROPSCIENCE AG, priority 2012, dated 2016)

Experiments:
[1] = test system: Puccinia recondita; assay: In vivo preventive test on Puccinia recondita (brown rust on wheat); conditions: wheat plants, preventive spray, grading 12 days after contamination
Description: (§1) The active ingredients tested are prepared by homogenization in a mixture of acetone/tween/DMSO, and then diluted with water to obtain the desired active material concentration.
Wheat plants (“Scipion” variety), sown in starter cups on a 50/50 peat soil-pozzolana substrate and grown at 22° C., are treated at the 1-leaf stage (10 cm height) by spraying with the active ingredient prepared as described above. Plants, used as controls, are treated with the mixture of acetone/tween/DMSO/water not containing the active material.
(§2) After 24 hours, the plants are contaminated by spraying the leaves with an aqueous suspension of Puccinia condita spores (100 000 spores per ml). The spores are collected from an infected plant and are suspended in water containing 2.5 ml/l of Tween 80 at 10%. The contaminated wheat plants are incubated for 24 hours at 20° C. and at 100% relative humidity, and then for 10 days at 20° C. and at 70-80% relative humidity.
(§3) Grading (% of efficacy) is carried out 12 days after the contamination, in comparison with the control plants.

[2] = logP by HPLC on reversed phase columns (EEC directive 79/831 Annex V.A8); format: physicochemical; conditions: method [a]: LC-MS at pH 2.7, 0.1% formic acid in water / acetonitrile; for chromatographic logP: reversed phase HPLC columns
Description: Measurement of log P values was performed according EEC directive 79/831 Annex V.A8 by HPLC (High Performance Liquid Chromatography) on reversed phase columns with the following methods: ^[a] Measurement of LC-MS was done at pH 2.7 with 0.1% formic acid in water and with acetonitrile (contains 0.1% formic acid) as eluent with a linear gradient from 10% acetonitrile to 95% acetonitrile. ^[b] Measurement with LC-MS was done at pH 7.8 with 0.001 molar ammonium hydrogen carbonate solution in water as eluent with a linear gradient from 10% acetonitrile to 95% acetonitrile.

[3] = test system: Uromyces appendiculatus; assay: In vivo preventive test on Uromyces appendiculatus (bean rust); conditions: bean plants, preventive spray, grading 11 days after contamination
Description: as §1
Bean plants (“Saxa” variety), sown in starter cups on a 50/50 peat soil-pozzolana substrate and grown at 24° C., are treated at the 2-leaf stage (9 cm height) by spraying with the active ingredient prepared as described above. Plants, used as controls, are treated with the mixture of acetone/tween/DMSO/water not containing the active material.
as §2, with “of Uromyces appendiculatus” for “of Puccinia condita”, “spores (150” for “spores (100”, “from” for “from an”, “infected plants” for “infected plant”, “contaminated bean” for “contaminated wheat”
Grading (% of efficacy) is carried out 11 days after the contamination, in comparison with the control plants.

[4] = test system: Septoria tritici; assay: In vivo preventive test on Septoria tritici (leaf spot on wheat); conditions: 500 ppm, wheat plants, preventive spray, grading 24 days after contamination
Description: Wheat plants (“Scipion” variety), sown in starter cups on a 50/50 peat soil-pozzolana substrate and grown at 22° C., are treated at the 1-leaf stage (10 cm height) by spraying with the active ingredient prepared as described above. Plants, used as controls, are treated with the mixture of acetone/tween/DMSO/water not containing the active material. After 24 hours, the plants are contaminated by spraying the leaves with an aqueous suspension of cryopreserved Septoria tritici spores (500 000 spores per ml). The contaminated wheat plants are incubated for 72 hours at 18° C. and at 100% relative humidity, and then for 21 days at 90% relative humidity. Grading (% of efficacy) is carried out 24 days after the contamination, in comparison with the control plants.

[5] = test system: Botrytis cinerea; assay: In vivo preventive test on Botrytis cinerea (grey mould), gherkin plants; conditions: preventive spray, grading 4 to 5 days after contamination
Description: (§4) The active ingredients tested are prepared by homogenization in a mixture of acetone/tween/DMSO and then diluted with water to obtain the desired active material concentration.
(§5) Gherkin plants (“Vert petit de Paris” variety), sown in starter cups on a 50/50 peat soil-pozzolana substrate and grown at 24° C., are treated at the Z11 cotyledon stage by spraying with the active ingredient prepared as described above. Plants, used as controls, are treated with the mixture of acetone/tween/DMSO/water not containing the active material.
After 24 hours, the plants are contaminated by spraying the cotyledons with an aqueous suspension of cryopreserved Botrytis cinerea spores (50 000 spores per ml). The spores are suspended in a nutrient solution composed of 10 g/L of PDB, 50 g/L of D-Fructose, 2 g/L of NH4NO3 and 1 g/L of KH2PO4. The contaminated gherkin plants are incubated at 17° C. and at 90% relative humidity.
Grading (% of efficacy) is carried out 4 to 5 days after the contamination, in comparison with the control plants.

[6] = test system: Sphaerotheca fuliginea; assay: In vivo preventive test on Sphaerotheca fuliginea (powdery mildew on cucurbits); conditions: gherkin plants, preventive spray, grading 12 days after contamination
Description: as §4, §5
After 24 hours, the plants are contaminated by spraying the cotyledons with an aqueous suspension of Sphaerotheca fuliginea spores (100 000 spores per ml). The spores are collected from infected plants. The contaminated gherkin plants are incubated at about 20° C. and at 70-80% relative humidity.
as §3

[7] = test system: Pyrenophora teres; assay: In vivo preventive test on Pyrenophora teres (net blotch on barley); conditions: barley plants, preventive spray, grading 14 days after contamination
Description: Barley plants (“Plaisant” variety), sown in starter cups on a 50/50 peat soil-pozzolana substrate and grown at 22° C., are treated at the 1-leaf stage (10 cm height) by spraying with the active ingredient prepared as described above. Plants, used as controls, are treated with the mixture of acetone/tween/DMSO/water not containing the active material. After 24 hours, the plants are contaminated by spraying the leaves with an aqueous suspension of Pyrenophora teres spores (12 000 spores per ml). The spores are collected from a 12-day-old culture. The contaminated barley plants are incubated for 48 hours at 20° C. and at 100% relative humidity, and then for 12 days at 20° C. at 70-80% relative humidity. Grading (% of efficacy) is carried out 14 days after the contamination, in comparison with the control plants.

[8] = test system: Alternaria brassicae; assay: In vivo preventive test on Alternaria brassicae (leaf spot on radish); conditions: radish plants, preventive spray, grading 6 days after contamination
Description: Radish plants (“Pernod Clair” variety), sown in starter cups on a 50/50 peat soil-pozzolana substrate and grown at 17° C., are treated at the cotyledon stage by spraying with the active ingredient prepared as described above. Plants, used as controls, are treated with the mixture of acetone/tween/DMSO/water not containing the active material. After 24 hours, the plants are contaminated by spraying the cotyledons with an aqueous suspension of Alternaria brassicae spores (50 000 spores per ml). The spores are collected from a 15-day-old culture. The contaminated radish plants are incubated at 20° C. and at 100% relative humidity. Grading (% of efficacy) is carried out 6 days after the contamination, in comparison with the control plants.

| logP [2] | Compound | Eff. % ([1]; 500 ppm) [%] | Eff. % ([3]; 500 ppm) [%] | Eff. % ([1]; 100 ppm) [%] | Eff. % ([5]; 100 ppm) [%] | Eff. % ([6]; 100 ppm) [%] | Eff. % ([8]; 100 ppm) [%] | Eff. % ([3]; 100 ppm) [%] | Eff. % ([7]; 100 ppm) [%] | further results |
| --- | --- | --- | --- | --- | --- | --- | --- | --- | --- | --- |
| 3.87[a] | CCC1OC(CC)(CC)c2cccc(NC(=O)c3c(C(F)F)nn(C)c3Br)c21 (centres unmarked) [Example 19] | – | – | 98 | – | 83 | 75 | 100 | – | – |
| 2.96[a] | CCC1OCc2cccc(NC(=O)c3c(C(F)F)nn(C)c3Br)c21 (centres unmarked) [Example 20] | – | – | 98 | – | – | – | 100 | – | – |
| 2.76[a] | CCC1OC(C)(C)c2cccc(NC(=O)c3c(C(F)F)nn(C)c3F)c21 (centres unmarked) [Example 21] | – | – | 98 | 93 | 98 | – | 100 | – | – |
| 3.26[a] | CCC1OC(CC)(CC)c2cccc(NC(=O)c3cn(C)nc3C(F)F)c21 (centres unmarked) [Example 23] | – | – | 98 | 97 | 100 | 88 | 100 | 92 | – |
| 3.65[a] | CCC1OC(CC)(CC)c2cccc(NC(=O)c3c(C(F)F)nn(C)c3F)c21 (centres unmarked) [Example 24] | – | – | 98 | 87 | 100 | 75 | 100 | 83 | – |
| 2.76[a] | CC(C)C1OC(C)(C)c2cccc(NC(=O)c3cn(C)nc3C(F)F)c21 (centres unmarked) [Example 25] | – | – | 98 | 98 | 100 | 75 | 99 | 83 | – |

Second part, the compound before the results:

| Compound | logP [2] | Eff. % ([1]; 500 ppm) [%] | Eff. % ([3]; 500 ppm) [%] | Eff. % ([1]; 100 ppm) [%] | Eff. % ([5]; 100 ppm) [%] | Eff. % ([6]; 100 ppm) [%] | Eff. % ([8]; 100 ppm) [%] | Eff. % ([3]; 100 ppm) [%] | Eff. % ([7]; 100 ppm) [%] | further results |
| --- | --- | --- | --- | --- | --- | --- | --- | --- | --- | --- |
| Cn1nc(C(F)F)c(C(=O)Nc2cccc3c2COC3(C)C)c1F [Example 3] | 2.35[a] | 100 | 100 | – | – | – | – | – | – | – |
| Cn1nc(C(F)F)c(C(=O)Nc2cccc3c2COC3(C)C)c1Cl [Example 4] | 2.55[a] | 100 | 100 | – | – | – | – | – | – | – |
| CC1OC(C)(C)c2cccc(NC(=O)c3c(C(F)F)nn(C)c3Br)c21 (centres unmarked) [Example 5] | 2.64[a] | 97 | 100 | – | – | – | – | – | – | – |
| CCC1(CC)OC(C)c2c(NC(=O)c3cn(C)nc3C(F)F)cccc21 (centres unmarked) [Example 6] | 2.9[a] | – | 100 | – | – | – | – | – | – | Eff. % [4]: 100%; Eff. % ([5]; 500 ppm): 100%; Eff. % ([6]; 500 ppm): 100%; Eff. % ([7]; 500 ppm): 92% |
| Cn1cc(C(=O)Nc2cccc3c2COC3(C)C)c(C(F)F)n1 [Example 7] | 2.1[a] | 98 | 100 | – | – | – | – | – | – | – |
| CCC1(CC)OC(C(C)C)c2c(NC(=O)c3c(C(F)F)nn(C)c3F)cccc21 (centres unmarked) [Example 8] | 4.06[a] | 98 | 100 | – | – | – | – | – | – | Eff. % [4]: 86%; Eff. % ([6]; 500 ppm): 100%; Eff. % ([8]; 500 ppm): 83% |
| CCC1(CC)OC(C)c2c(NC(=O)c3c(C(F)F)nn(C)c3Cl)cccc21 (centres unmarked) [Example 9] | 3.48[a] | 100 | 100 | – | – | – | – | – | – | Eff. % [4]: 93%; Eff. % ([6]; 500 ppm): 94% |
| CC1OC(C)(C)c2cccc(NC(=O)c3cn(C)nc3C(F)F)c21 (centres unmarked) [Example 10] | 2.15[a] | 94 | 95 | – | – | – | – | – | – | – |
| CCC1(CC)OC(C(C)C)c2c(NC(=O)c3cn(C)nc3C(F)F)cccc21 (centres unmarked) [Example 12] | 3.63[a] | 94 | 100 | – | – | – | – | – | – | Eff. % [4]: 86%; Eff. % ([6]; 500 ppm): 100%; Eff. % ([8]; 500 ppm): 78% |
| CC(C)C1OC(C)(C)c2cccc(NC(=O)c3c(C(F)F)nn(C)c3Cl)c21 (centres unmarked) [Example 14] | 3.33[a] | – | – | 98 | 93 | 100 | 75 | 100 | 92 | – |
| CCC1OC(C)(C)c2cccc(NC(=O)c3c(C(F)F)nn(C)c3Cl)c21 (centres unmarked) [Example 15] | 2.94[a] | – | – | 100 | – | 98 | 75 | 100 | 92 | – |
| CCC1OC(C)(C)c2cccc(NC(=O)c3cn(C)nc3C(F)F)c21 (centres unmarked) [Example 16] | – | – | – | 98 | 83 | 98 | – | 100 | 83 | – |
| CC(C)C1OC(C)(C)c2cccc(NC(=O)c3c(C(F)F)nn(C)c3Br)c21 (centres unmarked) [Example 17] | 3.33[a] | – | – | 94 | – | – | – | 100 | 83 | – |
| CCC1OC(CC)(CC)c2cccc(NC(=O)c3c(C(F)F)nn(C)c3Cl)c21 (centres unmarked) [Example 18] | 3.87[a] | – | – | 98 | – | 100 | 75 | 100 | 83 | – |
| CC(C)C1OC(C)(C)c2cccc(NC(=O)c3c(C(F)F)nn(C)c3F)c21 (centres unmarked) [Example 22, 3-(difluoromethyl)-5-fluoro-N-(3-isopropyl-1,1-dimethyl-1,3-dihydro-2-benzofuran-4-yl)-1-methyl-1H-pyrazole-4-carboxamide] | – | – | – | 98 | 98 | 100 | – | 99 | 97 | chromatographic logP [2]: 3.11 |
| CCC1OC(CC)(CC)c2cccc(NC(=S)c3cn(C)nc3C(F)F)c21 (centres unmarked) [Example 26, 3-(difluoromethyl)-1-methyl-N-(1,1,3-triethyl-1,3-dihydro-2-benzofuran-4-yl)-1H-pyrazole-4-carbothioamide] | – | – | – | – | – | – | – | – | – | chromatographic logP [2]: 3.76 |
